Results from PubChem BioAssay (NCI).
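Five compound concentrations were applied to cells in 96-well plates for 48 hours; endpoints were derived by simple linear interpolation of the resulting dose-response curve. TGI: concentration producing complete growth inhibition.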

Key:
Assay in all cases: inhibition of tumour cell growth, NCI panel, 48 h
MDA-N = test system: MDA-N
CAKI-1 renal = test system: CAKI-1 renal
A498 renal = test system: A498 renal
EKVX NSCLC = test system: EKVX NSCLC
T-47D breast = test system: T-47D breast
UACC-257 melanoma = test system: UACC-257 melanoma
RPMI-8226 leukemia = test system: RPMI-8226 leukemia
K-562 leukemia = test system: K-562 leukemia
SK-OV-3 ovarian = test system: SK-OV-3 ovarian
LOX IMVI melanoma = test system: LOX IMVI melanoma
UACC-62 melanoma = test system: UACC-62 melanoma
OVCAR-5 ovarian = test system: OVCAR-5 ovarian
SF-539 CNS = test system: SF-539 CNS
TK-10 renal = test system: TK-10 renal
UO-31 renal = test system: UO-31 renal
CCRF-CEM leukemia = test system: CCRF-CEM leukemia
MCF7 breast = test system: MCF7 breast
NCI/ADR-RES ovarian = test system: NCI/ADR-RES ovarian
KM12 colon = test system: KM12 colon
IGROV1 ovarian = test system: IGROV1 ovarian
MDA-MB-231 breast = test system: MDA-MB-231 breast
SW-620 colon = test system: SW-620 colon
SNB-75 CNS = test system: SNB-75 CNS
OVCAR-8 ovarian = test system: OVCAR-8 ovarian
OVCAR-4 ovarian = test system: OVCAR-4 ovarian
NCI-H226 lung = test system: NCI-H226 lung
M14 melanoma = test system: M14 melanoma
NCI-H23 lung = test system: NCI-H23 lung
SK-MEL-2 melanoma = test system: SK-MEL-2 melanoma
COLO 205 colon = test system: COLO 205 colon
HCT-15 colon = test system: HCT-15 colon
SN12C renal = test system: SN12C renal
SF-295 CNS = test system: SF-295 CNS
ACHN renal = test system: ACHN renal
SF-268 CNS = test system: SF-268 CNS
SK-MEL-5 melanoma = test system: SK-MEL-5 melanoma
OVCAR-3 ovarian = test system: OVCAR-3 ovarian
HOP-92 NSCLC = test system: HOP-92 NSCLC
NCI-H522 lung = test system: NCI-H522 lung
DU-145 prostate = test system: DU-145 prostate
BT-549 breast = test system: BT-549 breast
PC-3 prostate = test system: PC-3 prostate
U251 CNS = test system: U251 CNS
SR leukemia = test system: SR leukemia
HCT-116 colon = test system: HCT-116 colon
NCI-H460 lung = test system: NCI-H460 lung
HOP-62 NSCLC = test system: HOP-62 NSCLC
RXF 393 renal = test system: RXF 393 renal
SNB-19 CNS = test system: SNB-19 CNS
786-0 renal = test system: 786-0 renal
HS 578T breast = test system: HS 578T breast
MOLT-4 leukemia = test system: MOLT-4 leukemia
MDA-MB-435 = test system: MDA-MB-435

Measured: TGI

C#CCCOC(=O)c1ccccc1OC(C)=O
> 100 µM: all assays above
